Reference: PubChem BioAssay AID192 (DTP/NCI, 2004)
Where “and” joins values, the source holds several entries; their conditions need not be identical. Identical values can stand only once. Inconclusive results and toxic doses are left out.

Tested on: BDF1 mice, B16 melanoma ip, median survival T/C
Assay: NCI In Vivo Anticancer Drug Screen. Data for tumor model B16 Melanoma (intraperitoneal) in B6D2F1 (BDF1) mice
Settings: endpoint: median survival time, higher = longer survival
Outline: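 Compounds were tested in mice carrying transplantable tumors. Survival or tumor size was recorded, and each value is the treated-group measurement (T) divided by that of the vehicle-treated control group (C).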

[1] = dose: 25.0 mg/kg/injection, schedule: Q01DX009 (ip), vehicle: saline
[2] = dose: 50.0 mg/kg/injection, schedule: Q01DX009 (ip), vehicle: saline
[3] = dose: 100.0 mg/kg/injection, schedule: Q01DX009 (ip), vehicle: saline
[4] = dose: 200.0 mg/kg/injection, schedule: Q01DX009 (ip), vehicle: saline
[5] = dose: 400.0 mg/kg/injection, schedule: Q01DX009 (ip), vehicle: saline
[6] = dose: 25.0 mg/kg/injection, schedule: Q01DX009 (ip), vehicle: saline with Tween-80
[7] = dose: 50.0 mg/kg/injection, schedule: Q01DX009 (ip), vehicle: saline with Tween-80
[8] = dose: 100.0 mg/kg/injection, schedule: Q01DX009 (ip), vehicle: saline with Tween-80
[9] = dose: 200.0 mg/kg/injection, schedule: Q01DX009 (ip), vehicle: saline with Tween-80
[10] = dose: 1.5 mg/kg/injection, schedule: Q01DX009 (ip), vehicle: water
[11] = dose: 3.0 mg/kg/injection, schedule: Q01DX009 (ip), vehicle: water
[12] = dose: 12.5 mg/kg/injection, schedule: Q01DX009 (ip), vehicle: saline
[13] = dose: 50.0 mg/kg/injection, schedule: Q01DX009 (ip), vehicle: Klucel (hydroxypropylcellulose) (HPC)
[14] = dose: 100.0 mg/kg/injection, schedule: Q01DX009 (ip), vehicle: Klucel (hydroxypropylcellulose) (HPC)
[15] = dose: 200.0 mg/kg/injection, schedule: Q01DX009 (ip), vehicle: Klucel (hydroxypropylcellulose) (HPC)
[16] = dose: 400.0 mg/kg/injection, schedule: Q01DX009 (ip), vehicle: Klucel (hydroxypropylcellulose) (HPC)
[17] = dose: 6.0 mg/kg/injection, schedule: Q01DX009 (ip), vehicle: water

CC1CNC(=S)O1 (centres undefined)
T/C [1]: 97 % of control
T/C [2]: 91 % of control
T/C [3]: 91 % of control
T/C [4]: 89 % of control
T/C [5]: 91 % of control

NC(=S)N/N=C/c1ccc(OC(=O)COc2ccccc2)cn1
T/C (dose: 12.5 mg/kg/injection, schedule: Q01DX009 (ip), vehicle: saline with Tween-80): 101 % of control and 110 % of control
T/C [6]: 94 % of control and 104 % of control and 119 % of control
T/C [7]: 103 % of control and 106 % of control and 117 % of control
T/C [8]: 105 % of control
T/C [9]: 105 % of control
T/C (dose: 400.0 mg/kg/injection, schedule: Q01DX009 (ip), vehicle: saline with Tween-80): 108 % of control

CCCCCCCCCCCCO[P+](=O)OCCCCCCCCCCCC
T/C [3]: 88 % of control

CC(C)C1NC(=O)NC1=O (centres undefined)
T/C [3]: 100 % of control
T/C (dose: 100.0 mg/kg/injection, schedule: Q04DX003 (ip), vehicle: saline): 100 % of control
T/C [4]: 95 % of control
T/C (dose: 200.0 mg/kg/injection, schedule: Q04DX003 (ip), vehicle: saline): 106 % of control
T/C [5]: 100 % of control
T/C (dose: 400.0 mg/kg/injection, schedule: Q04DX003 (ip), vehicle: saline): 97 % of control

CSc1ccc2c(c1)C(N1CCN(C)CC1)Cc1ccccc1S2 (centres undefined)
T/C (dose: 1.56 mg/kg/injection, schedule: Q01DX009 (ip), vehicle: saline with Tween-80): 109 % of control
T/C (dose: 3.12 mg/kg/injection, schedule: Q01DX009 (ip), vehicle: saline with Tween-80): 110 % of control

C[n+]1ccc(C#N)c2ccccc21
T/C (dose: 3.75 mg/kg/injection, schedule: Q01DX009 (ip), vehicle: saline): 102 % of control
T/C (dose: 7.5 mg/kg/injection, schedule: Q01DX009 (ip), vehicle: saline): 93 % of control

O=NNc1ccc(Cl)cn1
T/C [10]: 104 % of control
T/C [11]: 118 % of control
T/C (dose: 24.0 mg/kg/injection, schedule: Q01DX009 (ip), vehicle: water): 161 % of control

CSCCC1NC(=O)C(/C(C)=N\NC(N)=O)=C1O (centres undefined)
T/C [6]: 111 % of control
T/C [7]: 105 % of control
T/C [8]: 96 % of control
T/C [9]: 96 % of control

[Cl][Pt+2]([Cl])([Cl])[Cl].[NH-]C1CCCCC1.[NH-]C1CCCCC1
T/C (dose: 6.25 mg/kg/injection, schedule: Q01DX009 (ip), vehicle: other): 124 % of control
T/C (dose: 12.5 mg/kg/injection, schedule: Q01DX009 (ip), vehicle: other): 111 % of control
T/C (dose: 25.0 mg/kg/injection, schedule: Q01DX009 (ip), vehicle: other): 112 % of control
T/C (dose: 50.0 mg/kg/injection, schedule: Q01DX009 (ip), vehicle: other): 103 % of control

CC(N)CN(C)C (centres undefined)
T/C [2]: 101 % of control
T/C [3]: 102 % of control
T/C [4]: 93 % of control

CCN1C(=O)CC2(CCN(C)CC2)C1=O
T/C (dose: 0.78 mg/kg/injection, schedule: Q01DX009 (ip), vehicle: saline): 122 % of control
T/C (dose: 1.56 mg/kg/injection, schedule: Q01DX009 (ip), vehicle: saline): 117 % of control
T/C (dose: 3.12 mg/kg/injection, schedule: Q01DX009 (ip), vehicle: saline): 103 % of control
T/C (dose: 6.25 mg/kg/injection, schedule: Q01DX009 (ip), vehicle: saline): 108 % of control
T/C [12]: 108 % of control
T/C [1]: 102 % of control
T/C [2]: 98 % of control
T/C [3]: 96 % of control

CCN(CC)CCCC(C)NS(=O)(=O)c1cccc2c(N(C)C)cccc12 (centres undefined)
T/C (dose: 6.25 mg/kg/injection, schedule: Q01DX009 (ip), vehicle: water): 104 % of control
T/C (dose: 12.5 mg/kg/injection, schedule: Q01DX009 (ip), vehicle: water): 104 % of control
T/C (dose: 25.0 mg/kg/injection, schedule: Q01DX009 (ip), vehicle: water): 97 % of control
T/C (dose: 50.0 mg/kg/injection, schedule: Q01DX009 (ip), vehicle: water): 98 % of control
T/C (dose: 100.0 mg/kg/injection, schedule: Q01DX009 (ip), vehicle: water): 92 % of control

CCCNCCCN
T/C [12]: 102 % of control
T/C [1]: 105 % of control
T/C [2]: 89 % of control

COc1cc2c(cc1OC)C(CN)C2 (centres undefined)
T/C [13]: 94 % of control
T/C [14]: 97 % of control

CCC(C)(C)c1ccc(O)c(C(C)(C)CC)c1
T/C [14]: 93 % of control
T/C [15]: 106 % of control
T/C [16]: 106 % of control

C[n+]1noc([O-])c1-c1ccccc1
T/C [7]: 101 % of control
T/C [8]: 97 % of control
T/C [9]: 103 % of control

CC(=O)N(C)N=Nc1ccc(C)cc1
T/C (dose: 8.75 mg/kg/injection, schedule: Q01DX009 (ip), vehicle: Klucel (hydroxypropylcellulose) (HPC)): 103 % of control
T/C (dose: 17.5 mg/kg/injection, schedule: Q01DX009 (ip), vehicle: Klucel (hydroxypropylcellulose) (HPC)): 103 % of control

CC(C)(C)OC(=O)C(CSSCC(NC(=O)OCc1ccccc1)C(=O)OC(C)(C)C)NC(=O)OCc1ccccc1 (centres undefined)
T/C (dose: 75.0 mg/kg/injection, schedule: Q01DX009 (ip), vehicle: Klucel (hydroxypropylcellulose) (HPC)): 94 % of control
T/C (dose: 150.0 mg/kg/injection, schedule: Q01DX009 (ip), vehicle: Klucel (hydroxypropylcellulose) (HPC)): 100 % of control
T/C (dose: 300.0 mg/kg/injection, schedule: Q01DX009 (ip), vehicle: Klucel (hydroxypropylcellulose) (HPC)): 88 % of control

c1ccc(-c2nc3cnccc3o2)cc1
T/C (dose: 3.13 mg/kg/injection, schedule: Q04DX003 (ip), vehicle: Klucel (hydroxypropylcellulose) (HPC)): 91 % of control
T/C (dose: 6.25 mg/kg/injection, schedule: Q04DX003 (ip), vehicle: Klucel (hydroxypropylcellulose) (HPC)): 100 % of control
T/C (dose: 12.5 mg/kg/injection, schedule: Q04DX003 (ip), vehicle: Klucel (hydroxypropylcellulose) (HPC)): 91 % of control and 97 % of control

COc1ccc(OC)c(/C=C/C(=O)c2ccc(Cl)cc2)c1
T/C [14]: 92 % of control
T/C (dose: 100.0 mg/kg/injection, schedule: Q04DX003 (ip), vehicle: Klucel (hydroxypropylcellulose) (HPC)): 103 % of control
T/C [15]: 92 % of control
T/C (dose: 200.0 mg/kg/injection, schedule: Q04DX003 (ip), vehicle: Klucel (hydroxypropylcellulose) (HPC)): 109 % of control
T/C [16]: 89 % of control
T/C (dose: 400.0 mg/kg/injection, schedule: Q04DX003 (ip), vehicle: Klucel (hydroxypropylcellulose) (HPC)): 103 % of control

COc1cccc2c1C(=O)c1c(O)c3c(c(O)c1C2=O)CC(O)(/C(C)=N/NC(=O)CCCCC(=O)N/N=C(\C)C1(O)Cc2c(O)c4c(c(O)c2C(OC2CC(N)C(O)C(C)O2)C1)C(=O)c1c(OC)cccc1C4=O)CC3OC1CC(N)C(O)C(C)O1 (centres undefined)
T/C (dose: 0.38 mg/kg/injection, schedule: Q01DX009 (ip), vehicle: water): 114 % of control
T/C [10]: 177 % of control
T/C [11]: 295 % of control
T/C [17]: 208 % of control

Cc1c(Cl)cccc1NS(=O)(=O)c1ccc(Cl)cc1
T/C (dose: 25.0 mg/kg/injection, schedule: Q01DX009 (ip), vehicle: Klucel (hydroxypropylcellulose) (HPC)): 106 % of control
T/C [13]: 97 % of control
T/C [14]: 99 % of control

CC1(C)SC(C(NC(=O)Cc2ccccc2)C(=O)O)NC1C(=O)O (centres undefined)
T/C [8]: 105 % of control
T/C [9]: 102 % of control

Cc1ccc(NC(=O)c2ccccc2)c(C)c1
T/C [7]: 95 % of control
T/C (dose: 50.0 mg/kg/injection, schedule: Q04DX003 (ip), vehicle: saline with Tween-80): 97 % of control
T/C [8]: 105 % of control
T/C (dose: 100.0 mg/kg/injection, schedule: Q04DX003 (ip), vehicle: saline with Tween-80): 100 % of control
T/C [9]: 92 % of control
T/C (dose: 200.0 mg/kg/injection, schedule: Q04DX003 (ip), vehicle: saline with Tween-80): 90 % of control

COc1cc(-c2ccc(Nc3ccccc3C(=O)O)c(OC)c2)ccc1N
T/C [6]: 105 % of control
T/C [7]: 104 % of control

C[n+]1c2ccccc2c(Nc2ccc(NS(=O)(=O)CCCCN=C(N)N)cc2)c2ccc(N)cc21
T/C (dose: 0.75 mg/kg/injection, schedule: Q01DX009 (ip), vehicle: water): 114 % of control
T/C (dose: 3.0 mg/kg/injection, schedule: Q01DX009 (ip), vehicle: Klucel (hydroxypropylcellulose) (HPC)): 170 % of control
T/C [11]: 171 % of control
T/C (dose: 6.0 mg/kg/injection, schedule: Q01DX009 (ip), vehicle: Klucel (hydroxypropylcellulose) (HPC)): 159 % of control
T/C [17]: 168 % of control and 176 % of control
T/C (dose: 12.0 mg/kg/injection, schedule: Q01DX009 (ip), vehicle: water): 184 % of control and 188 % of control
T/C (dose: 12.5 mg/kg/injection, schedule: Q04DX003 (ip), vehicle: water): 151 % of control
T/C (dose: 25.0 mg/kg/injection, schedule: Q04DX003 (ip), vehicle: water): 171 % of control
